# In ChEMBL document CHEMBL6096654, “Allosteric inhibition of PTP1B by bromocatechol-chalcone derivatives” (Eur J Med Chem, 2025):
# The source made the active and inactive calls. The rule behind the calls is not given here.
# Experiments:
# HepG2 = assay: Inhibition of insulin-resistance in insulin-resistant human HepG2 cells assessed as increase in insulin receptor phosphorylation pretreated for 24 hrs followed by compound washout and further addition of insulin measured after 20 mins by Western blot analysis; format: functional, cell-based; settings: dose 0.625-2.5 µM
# [1] = Acute toxicity in Kunming mouse assessed as change in cell morphology of kidney at 2000 mg/kg, po measured for 14 days by H and E staining based analysis; format: organism-based; settings: in vivo, 336 h, time 14 day
# [2] = Acute toxicity in Kunming mouse assessed as change in cell morphology of liver at 2000 mg/kg, po measured for 14 days by H and E staining based analysis; format: organism-based; settings: in vivo, 336 h, time 14 day
# [3] = Toxicity in BKD db/db mouse assessed as effect on para-metrial white adipose tissue weight at 40 to 80 mg/kg/day, po qd for 8 weeks; format: organism-based; settings: in vivo, 1344 h, dose 40-80 mg/kg/day
# [4] = Inhibition of PTP1B N193A/K197A mutant (unknown origin) using pNPP as substrate incubated for 30 mins by spectrophotometry; design: species or system Homo sapiens
# [5] = molecular target: T1, Tyrosine-protein phosphatase non-receptor type 2 (Homo sapiens, UniProt P17706); assay: Inhibition of TCPTP (unknown origin) using pNPP as substrate incubated for 30 mins by spectrophotometry
# T1 sequence (P17706 whole entry): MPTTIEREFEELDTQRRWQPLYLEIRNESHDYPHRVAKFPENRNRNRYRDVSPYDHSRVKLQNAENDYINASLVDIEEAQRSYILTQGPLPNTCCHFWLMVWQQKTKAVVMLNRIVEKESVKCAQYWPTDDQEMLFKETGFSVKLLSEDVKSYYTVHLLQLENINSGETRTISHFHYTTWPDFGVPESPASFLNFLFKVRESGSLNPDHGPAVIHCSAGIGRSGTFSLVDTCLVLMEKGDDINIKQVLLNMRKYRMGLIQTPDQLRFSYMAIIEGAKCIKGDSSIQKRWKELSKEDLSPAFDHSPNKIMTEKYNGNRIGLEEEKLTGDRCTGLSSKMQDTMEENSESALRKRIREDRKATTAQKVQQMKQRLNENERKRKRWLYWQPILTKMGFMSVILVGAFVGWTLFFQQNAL
# Mus musculus [6] = assay: Hypoglycemic activity in BKD db/db mouse assessed as increase in insulin receptor phosphorylation in epididymal white adipose tissue at 40 to 80 mg/kg/day, po for 8 weeks by Western blot analysis; format: functional, organism-based; settings: dose 40-80 mg/kg/day
# [7] = Toxicity in BKD db/db mouse assessed as effect on subcutaneous fat weight at 40 to 80 mg/kg/day, po qd for 8 weeks; format: organism-based; settings: in vivo, 1344 h, dose 40-80 mg/kg/day
# [8] = molecular target: T2, Tyrosine-protein phosphatase non-receptor type 1 (Homo sapiens, UniProt P18031); assay: Allosteric inhibition of recombinant human PTP1B (1 to 321 residues) using pNPP as substrate preincubated for 5 mins followed by substrate addition measured after 10 mins
# T2 sequence (P18031 whole entry): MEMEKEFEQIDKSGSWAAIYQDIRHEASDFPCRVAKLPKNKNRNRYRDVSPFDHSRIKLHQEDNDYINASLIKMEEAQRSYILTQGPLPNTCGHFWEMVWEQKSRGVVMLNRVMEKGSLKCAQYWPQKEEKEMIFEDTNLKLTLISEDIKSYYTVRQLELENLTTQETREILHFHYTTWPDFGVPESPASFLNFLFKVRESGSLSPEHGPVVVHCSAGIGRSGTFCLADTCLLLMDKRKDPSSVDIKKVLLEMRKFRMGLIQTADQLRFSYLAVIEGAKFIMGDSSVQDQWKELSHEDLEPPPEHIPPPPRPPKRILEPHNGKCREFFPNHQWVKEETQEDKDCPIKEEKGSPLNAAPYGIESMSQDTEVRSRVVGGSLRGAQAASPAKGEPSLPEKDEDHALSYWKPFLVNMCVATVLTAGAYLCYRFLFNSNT
# Mus musculus [9] = assay: Hypoglycemic activity in BKD db/db mouse assessed as decrease in blood glucose level at 40 to 80 mg/kg/day, po for 6 weeks by OGTT method; format: functional, organism-based; settings: dose 40-80 mg/kg/day
# [10] = molecular target: T3, Tyrosine-protein phosphatase non-receptor type 11 (Homo sapiens, UniProt Q06124); assay: Inhibition of SHP2 (unknown origin) using pNPP as substrate incubated for 30 mins by spectrophotometry
# T3 sequence (Q06124 whole entry): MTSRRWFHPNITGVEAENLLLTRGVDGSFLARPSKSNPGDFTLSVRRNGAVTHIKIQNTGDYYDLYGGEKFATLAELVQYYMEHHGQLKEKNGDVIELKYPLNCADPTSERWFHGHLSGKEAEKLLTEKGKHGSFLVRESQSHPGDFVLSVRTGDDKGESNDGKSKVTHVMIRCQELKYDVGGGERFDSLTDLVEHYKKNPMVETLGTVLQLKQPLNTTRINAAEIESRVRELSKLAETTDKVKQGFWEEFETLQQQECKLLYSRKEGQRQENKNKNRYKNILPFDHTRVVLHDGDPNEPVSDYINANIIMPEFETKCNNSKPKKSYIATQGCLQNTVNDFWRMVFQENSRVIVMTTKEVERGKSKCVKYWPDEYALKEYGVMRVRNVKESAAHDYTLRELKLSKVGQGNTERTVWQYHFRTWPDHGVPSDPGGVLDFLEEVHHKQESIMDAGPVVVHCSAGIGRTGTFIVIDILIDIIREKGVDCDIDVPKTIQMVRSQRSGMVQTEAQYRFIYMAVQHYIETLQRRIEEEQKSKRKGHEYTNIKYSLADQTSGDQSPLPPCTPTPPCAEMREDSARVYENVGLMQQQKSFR
# [11] = molecular target: T2, Tyrosine-protein phosphatase non-receptor type 1; assay: Binding affinity to PTP1B (unknown origin) assessed as dissociation constant by SPR analysis
# Mus musculus [12] = assay: Hypoglycemic activity in BKD db/db mouse assessed as decrease in blood glucose level at 40 to 80 mg/kg/day, po qd for 3 to 4 weeks; format: functional, organism-based; settings: dose 40-80 mg/kg/day, time 3-4 weeks
compound,measurement,setting,value
CCOc1ccc(Oc2ccc(C(=O)/C=C/c3cc(O)c(O)c(Br)c3Br)cc2)cc1,inhibition,HepG2,Dose-dependent-effect
same,Activity,[1],Non-toxic
same,Activity,[2],Non-toxic
same,Activity,[3],Non-toxic
same,IC50,[4],14.8 µM
same,IC50,[5],15.8 µM
same,Activity,Mus musculus [6],Active
same,Activity,[7],Non-toxic
same,Ki,[8],2.33 µM
same,Activity,Mus musculus [9],Active
same,IC50,[10],> 20 µM
same,Kd,[11],0.0612 µM
same,Activity,Mus musculus [12],Active
